The NIST ThermoML archive (doi:10.1021/je2003012)

Test: relative permittivity at various frequencies (dimensionless); wn = mass fraction of the nth substance listed
Details: Liquid, direct capacitance:P =

O=C=O [carbon dioxide] + CCO
Details	relative permittivity
304.9 K, 29800 kPa, w2 = 0.152	2.85
312.8 K, 8000 kPa, w2 = 0.212	2.8
312.8 K, 9300 kPa, w2 = 0.212	2.86
312.8 K, 11200 kPa, w2 = 0.212	2.94
312.8 K, 11500 kPa, w2 = 0.212	2.94
312.8 K, 14200 kPa, w2 = 0.212	3
312.8 K, 14300 kPa, w2 = 0.212	3.01
312.8 K, 14900 kPa, w2 = 0.212	3.03
312.8 K, 15800 kPa, w2 = 0.212	3.05
312.8 K, 17400 kPa, w2 = 0.212	3.11
312.8 K, 18000 kPa, w2 = 0.212	3.14
312.8 K, 20000 kPa, w2 = 0.212	3.17
312.8 K, 20600 kPa, w2 = 0.212	3.18
312.8 K, 22200 kPa, w2 = 0.212	3.22
312.8 K, 22800 kPa, w2 = 0.212	3.23
312.8 K, 23700 kPa, w2 = 0.212	3.25
312.8 K, 26300 kPa, w2 = 0.212	3.3
312.8 K, 28100 kPa, w2 = 0.212	3.32
312.8 K, 28400 kPa, w2 = 0.212	3.34
312.8 K, 30800 kPa, w2 = 0.212	3.37
313 K, 9700 kPa, w2 = 0.05	1.63
313 K, 9800 kPa, w2 = 0.05	1.64
313 K, 9900 kPa, w2 = 0.05	1.65
313 K, 11300 kPa, w2 = 0.05	1.7
313 K, 11700 kPa, w2 = 0.05	1.7
313 K, 11800 kPa, w2 = 0.05	1.7
313 K, 13200 kPa, w2 = 0.05	1.74
313 K, 13700 kPa, w2 = 0.05	1.74
313 K, 15100 kPa, w2 = 0.05	1.77
313 K, 15700 kPa, w2 = 0.05	1.78
313 K, 17400 kPa, w2 = 0.05	1.8
313 K, 17500 kPa, w2 = 0.05	1.8
313 K, 19200 kPa, w2 = 0.05	1.82
313 K, 20700 kPa, w2 = 0.05	1.83
313 K, 21600 kPa, w2 = 0.05	1.84
313 K, 23500 kPa, w2 = 0.05	1.86
313 K, 25300 kPa, w2 = 0.05	1.87
313 K, 25400 kPa, w2 = 0.05	1.87
313 K, 27400 kPa, w2 = 0.05	1.89
313 K, 30400 kPa, w2 = 0.05	1.91
313.1 K, 9700 kPa, w2 = 0.1	1.98
313.1 K, 10100 kPa, w2 = 0.152	2.37
313.1 K, 10200 kPa, w2 = 0.1	2
313.1 K, 10900 kPa, w2 = 0.152	2.39
313.1 K, 11000 kPa, w2 = 0.1	2.03
313.1 K, 11800 kPa, w2 = 0.152	2.42
313.1 K, 12000 kPa, w2 = 0.1	2.05
313.1 K, 12700 kPa, w2 = 0.1	2.08
313.1 K, 12700 kPa, w2 = 0.152	2.45
313.1 K, 13100 kPa, w2 = 0.1	2.09
313.1 K, 13700 kPa, w2 = 0.1	2.11
313.1 K, 13800 kPa, w2 = 0.152	2.47
313.1 K, 14600 kPa, w2 = 0.152	2.49
313.1 K, 14800 kPa, w2 = 0.1	2.13
313.1 K, 15700 kPa, w2 = 0.152	2.52
313.1 K, 15800 kPa, w2 = 0.1	2.15
313.1 K, 16800 kPa, w2 = 0.152	2.54
313.1 K, 17000 kPa, w2 = 0.1	2.17
313.1 K, 17700 kPa, w2 = 0.1	2.18
313.1 K, 17800 kPa, w2 = 0.152	2.56
313.1 K, 18800 kPa, w2 = 0.1	2.19
313.1 K, 18800 kPa, w2 = 0.152	2.58
313.1 K, 19500 kPa, w2 = 0.152	2.59
313.1 K, 19800 kPa, w2 = 0.1	2.2
313.1 K, 20800 kPa, w2 = 0.152	2.61
313.1 K, 21600 kPa, w2 = 0.152	2.62
313.1 K, 21900 kPa, w2 = 0.1	2.23
313.1 K, 22100 kPa, w2 = 0.1	2.23
313.1 K, 22400 kPa, w2 = 0.1	2.24
313.1 K, 22600 kPa, w2 = 0.152	2.63
313.1 K, 23500 kPa, w2 = 0.152	2.64
313.1 K, 24100 kPa, w2 = 0.1	2.26
313.1 K, 24400 kPa, w2 = 0.1	2.26
313.1 K, 24500 kPa, w2 = 0.152	2.66
313.1 K, 25500 kPa, w2 = 0.152	2.67
313.1 K, 25800 kPa, w2 = 0.1	2.28
313.1 K, 26400 kPa, w2 = 0.1	2.28
313.1 K, 26500 kPa, w2 = 0.152	2.68
313.1 K, 27500 kPa, w2 = 0.152	2.69
313.1 K, 27700 kPa, w2 = 0.1	2.3
313.1 K, 27800 kPa, w2 = 0.1	2.3
313.1 K, 27900 kPa, w2 = 0.152	2.7
313.1 K, 28300 kPa, w2 = 0.1	2.3
313.1 K, 28400 kPa, w2 = 0.152	2.71
313.1 K, 29300 kPa, w2 = 0.1	2.31
313.1 K, 29300 kPa, w2 = 0.152	2.72
313.1 K, 29500 kPa, w2 = 0.1	2.32
322.4 K, 10500 kPa, w2 = 0.1	1.86
